According to patent US20080076147A1, “BIOFILM SAMPLING DEVICE” (BOARD OF TRUSTEES OF SOUTHERN ILLINOIS UNIVERSITY, priority 2006, published 2008):

Experiments:
[1] = system: Stenotrophomonas maltophilia; experiment: Biocide kill of planktonic cells and biofilm on vascular catheter (serum flow model); format: cell-based; conditions: 5 to 60 minutes; for biofilm kill (biocide concentration required to kill 50% of bacteria that grew in the biofilm): biofilm on vascular catheter, FIG. 17B; for planktonic cell kill (biocide concentration required to kill 100% of bacteria present as planktonic cells): planktonic cells on vascular catheter, FIG. 17A
Source text: (§1) A system as shown in FIG. 6 was used in this study. Serum and a biocide were placed in sealed bottles as the first fluid source 505 and the second fluid source 509, respectively. The fluid sources were connected to a pump 515 by conventional IV tubing. A second pump 531 was used to deliver the fluid mixture to the vascular catheter 3 positioned in the sampling apparatus 1.
(§2) Initially, only the first fluid source, serum inoculated with Acinetobacter baumanii (10×10^9 CFU/ml), was used to contaminate the catheter with planktonic cells. The inoculated fluid continuously flowed through IV tubing directly through the catheter for […] to form a layer of planktonic cells on the catheter. Fluid flow was then stopped and the tubing was then reconfigured as shown in FIG. 6 so that the second fluid source could be introduced. In these test runs, the first fluid source was inoculated with the same concentration of bacteria, and the second fluid source was a biocide (16-16,000 ppm) selected from hydrogen peroxide (H2O2), sodium hypochlorite (SHC), peracetic acid (PAA) and gluteraldehyde (GLT). The fluid mixture continuously flowed through the catheter for 5, 10, 15, 30, 45 or 60 minutes before fluid flow was discontinued to determine bacterial resistance of the planktonic cells on the catheter. In all, six runs were completed for each of four different biocides. After each run, the test catheter was then cut aseptically into 1 cm segments. The segments were transferred to test tubes containing one ml saline and the adherent cells were dislodged by sonication in an aquasonic device, vortexed for about one minute, and then counted on Tropic soya Agar. The number of viable cells were determined for each catheter and were compared to the number of viable cells in control samples (i.e., biocide-free serum) to calculate the biocide concentration required to kill 50% of the bacteria in the biofilm at the same time interval. Instead of saline, other appropriate buffer solutions can be used. In addition to plating cells on agar and counting the number of colonies, the amount of biofilm formed can be determined by a semiquantitive microtiter plate method. For example, adherent cells can be dislodged from test catheters as described above. The aliquots of solutions containing the cells from each catheter piece can then be added separately to wells of a 96-well tissue culture plate and incubated at 37° C. for 24 h. After several (e.g., three) washes with PBS, any remaining biofilm is stained with safranin O dye for 1 min and washed with PBS again. Optical density at 492 nm is determined with a 96-well plate spectrometer reader. For each time point, an aliquot without biocide is a positive control. Percent inhibition of biofilm accumulation can be determined from the formula (A492positive−A492biocide)/(A492positive−A492)×100%, Such plating methods are well known to one skilled in the art and could be modified as desired for analysis of the biofilm.
(§3) For determination of the bacterial resistance of the biofilm formed on the catheter, the method described above was repeated using the same conditions except that the inoculated fluid continuously flowed through the catheter for two hours before fluid flow was discontinued to form a biofilm on the catheter.
The experiment was repeated as described above, except that Stenotrophomonas maltophilia (1×10^9 CFU/ml) was used to inoculate the serum.

[2] = system: Burkholderia cepacia; experiment: as above; format: cell-based; conditions: 5 to 60 minutes; for biofilm kill (biocide concentration required to kill 50% of bacteria that grew in the biofilm): biofilm on vascular catheter, FIG. 11B; for planktonic cell kill (biocide concentration required to kill 100% of bacteria present as planktonic cells): planktonic cells on vascular catheter, FIG. 11A
Source text: as §1, §2, §3
The experiment was repeated as described above, except that Burkholderia cepacia (1×10^9 CFU/ml) was used to inoculate the serum.

[3] = system: methicillin resistant Staphylococcus aureus (MRSA); experiment: as above; format: cell-based; conditions: biofilm on vascular catheter, 5 to 60 minutes, FIG. 14B
[4] = system: Escherichia coli; experiment: as above; format: cell-based; conditions: biofilm on vascular catheter, over all time periods (5 to 60 minutes), FIG. 12B
[5] = system: Acinetobacter baumanii; experiment: as above; format: cell-based; conditions: planktonic cells on vascular catheter, 5 to 60 minutes, FIG. 10A
Source text: as §1
Initially, only the first fluid source, serum inoculated with Acinetobacter baumanii (10×10^9 CFU/ml), was used to contaminate the catheter with planktonic cells. The inoculated fluid continuously flowed through IV tubing directly through the catheter for […] to form a layer of planktonic cells on the catheter. […] The segments were transferred to test tubes containing one ml saline and the adherent cells were dislodged by sonication in an aquasonic device, vortexed for about one minute, and then counted on Tropic soya Agar. The number of viable cells were determined for each catheter and were compared to the number of viable cells in control samples (i.e., biocide-free serum) to calculate the biocide concentration required to kill 50% of the bacteria in the biofilm at the same time interval. […] In addition to plating cells on agar and counting the number of colonies, the amount of biofilm formed can be determined by a semiquantitive microtiter plate method. […]

[6] = system: Staphylococcus epidermis; experiment: as above; format: cell-based; conditions: 5 to 60 minutes; for biofilm kill (biocide concentration required to kill 50% of bacteria that grew in the biofilm): biofilm on vascular catheter, FIG. 15B; for planktonic cell kill (biocide concentration required to kill 100% of bacteria present as planktonic cells): planktonic cells on vascular catheter, FIG. 15A
Source text: as §1, §2, §3
The experiment was repeated as described above, except that Staphylococcus epidermis (1×10^9 CFU/ml) was used to inoculate the serum.

[7] = system: Pseudomonas aeruginosa; experiment: as above; format: cell-based; conditions: 5 to 60 minutes; for biofilm kill (biocide concentration required to kill 50% of bacteria that grew in the biofilm): biofilm on vascular catheter, FIG. 16B; for planktonic cell kill (biocide concentration required to kill 100% of bacteria present as planktonic cells): planktonic cells on vascular catheter, FIG. 16A
Source text: as §1, §2, §3
The experiment was repeated as described above, except that Pseudomonas aeruginosa (1×10^9 CFU/ml) was used to inoculate the serum.

[8] = system: MRSA; experiment: Mucin in controlling colonization of MRSA in endotracheal tube model; format: cell-based, Staphylococcus aureus; conditions: for log10 reduction of colonized MRSA: 48 hours flow, endotracheal tube
Source text: (§4) A system as shown in FIG. 7 was used in this study. Artificial saliva was placed in a sealed bottle as the second fluid source 609. The first fluid source was provided by an oxygen tank used to saturate the artificial saliva with oxygen. A pump 631 was used to deliver the saliva to an endotracheal tube 3 positioned in the sampling apparatus 1.
(§5) Initially, only the second fluid source, saliva inoculated with MRSA (1×10^9 CFU/ml), was used to contaminate the endotracheal tube. The inoculated fluid continuously flowed through IV tubing directly through the endotracheal tube for 60 minutes to form a biofilm on the tube. Fluid flow was then stopped and the tubing was then reconfigured as shown in FIG. 7 so that oxygen could be introduced. In these test runs, 100 mg/L mucin was added to the saliva. The fluid mixture continuously flowed through the catheter for 48 hours before fluid flow was discontinued to determine the effect of mucin on the bacterial resistance of the biofilm formed on the endotracheal tube. In all, four runs were completed at 0 mg/L mucin (control), 100 mg/L mucin, 500 mg/L mucin and 1000 mg/L mucin. After each run, the endotracheal tube was cut aseptically into one cm segments. The segments were transferred to test tubes containing one ml saline and the adherent cells were dislodges by sonication in an aquasonic device, vortexed for about one minute, and then counted on Tropic soya Agar.
The results of this study are shown in FIG. 18, which depicts the number of MRSA colony forming units per unit of surface area (CFU/cm^2) on the tube for each mucin concentration. […] The log10 reduction of colonized MRSA was 0.5, 3 (P=0.0001) and 3.5 (P=0.0001) at 100, 500 and 1000 mg/L of mucin, respectively. […] This pathogen plays a significant role in the onset of […] associated pneumonia by causing sustained tracheal colonization.

[9] = system: Enterococcus faecalis; experiment: Biocide kill of planktonic cells and biofilm on vascular catheter (serum flow model); format: cell-based; conditions: at 5 minutes of treatment; phase (planktonic or biofilm) not specified, FIGS. 13A-B
[10] = system: MRSA; experiment: Effect of albumin coating on colonization of MRSA in endotracheal tube model; format: cell-based, Staphylococcus aureus
Source text: as §4, with “1. Each endotracheal tube was pretreated by coating the tube with undiluted bovine serum albumin, except for the untreated tube used as a control.” for “1.”
as §5, with “of albumin” for “of mucin”, “the colonization” for “the bacterial resistance”, “of MRSA” for “of the biofilm formed”, “tube. […]” for “tube. In all, four runs were completed at 0 mg/L mucin (control), 100 mg/L mucin, 500 mg/L mucin and 1000 mg/L mucin. After each run, the endotracheal tube was cut aseptically into one cm segments.”, “Agar. […]” for “Agar.”

Row | Compound | biofilm kill (biocide concentration required to kill 50% of bacteria that grew in the biofilm) [1] | planktonic cell kill (biocide concentration required to kill 100% of bacteria present as planktonic cells) [1] | biofilm kill (biocide concentration required to kill 50% of bacteria that grew in the biofilm) [2] | planktonic cell kill (biocide concentration required to kill 100% of bacteria present as planktonic cells) [2] | biofilm kill (biocide concentration required to kill 50% of bacteria that grew in the biofilm) [3] | biofilm kill (biocide concentration required to kill 50% of bacteria that grew in the biofilm) [4] | planktonic cell kill (biocide concentration required to kill 100% of bacteria present as planktonic cells) [5] | biofilm kill (biocide concentration required to kill 50% of bacteria that grew in the biofilm) [6] | planktonic cell kill (biocide concentration required to kill 100% of bacteria present as planktonic cells) [6] | biofilm kill (biocide concentration required to kill 50% of bacteria that grew in the biofilm) [7] | planktonic cell kill (biocide concentration required to kill 100% of bacteria present as planktonic cells) [7] | log10 reduction of colonized MRSA ([8]; 100 mg/L of mucin in oxygen-saturated artificial saliva) [log10] | log10 reduction of colonized MRSA ([8]; 500 mg/L of mucin in oxygen-saturated artificial saliva, P=0.0001) [log10] | log10 reduction of colonized MRSA ([8]; 1000 mg/L of mucin in oxygen-saturated artificial saliva, P=0.0001) [log10] | colonization of MRSA on endotracheal tubes (in words) ([8]; mucin 100-1000 mg/L in artificial saliva, in vitro, FIG. 18) | effectiveness as compared to the other biocides [9] | MRSA colonization of endotracheal tubes (in words) ([10]; albumin coating of endotracheal tube, FIG. 19) | log10 increase of colonized cells ([10]; whole tube coating with albumin, 100 mg/L mucin in saliva, 48 hours flow, versus uncoated tube, P<0.0001) [log10]
1 | O=CCCCC=O [GLT, gluteraldehyde] | nearly identical effect | somewhat more effective in killing planktonic cells as compared to SHC or PAA and considerably more effective than hydrogen peroxide | nearly identical effect | performed comparably and were more effective than hydrogen peroxide | PAA>GLT>hydrogen peroxide>SHC | least effective | most effective | least effective | performed similarly in planktonic cell kill and outperformed hydrogen peroxide | PAA>SHC>GLT>hydrogen peroxide | performed comparably and were more effective than hydrogen peroxide and SHC |  |  |  |  |  |  | 
2 | OCl [SHC, sodium hypochlorite] | nearly identical effect | GLT was somewhat more effective in killing planktonic cells as compared to SHC or PAA | nearly identical effect | performed comparably and were more effective than hydrogen peroxide | PAA>GLT>hydrogen peroxide>SHC |  |  | performed comparably | performed similarly in planktonic cell kill and outperformed hydrogen peroxide | PAA>SHC>GLT>hydrogen peroxide | PAA and GLT performed comparably and were more effective than hydrogen peroxide and SHC |  |  |  |  |  |  | 
3 | mucin |  |  |  |  |  |  |  |  |  |  |  | 0.5 | 3 | 3.5 | effective in decreasing the colonization of MRSA on endotracheal tubes |  |  | 
4 | OO [hydrogen peroxide] | nearly identical effect | GLT was somewhat more effective in killing planktonic cells as compared to SHC or PAA and considerably more effective than hydrogen peroxide | nearly identical effect | SHC, PAA and GLT performed comparably and were more effective than hydrogen peroxide | PAA>GLT>hydrogen peroxide>SHC |  |  | performed comparably | SHC, PAA and GLT performed similarly in planktonic cell kill and outperformed hydrogen peroxide | PAA>SHC>GLT>hydrogen peroxide | PAA and GLT performed comparably and were more effective than hydrogen peroxide and SHC |  |  |  |  | relatively uneffective |  | 
5 | bovine serum albumin |  |  |  |  |  |  |  |  |  |  |  |  |  |  |  |  | increased significantly | 2.4
